Consider five compounds from patent US6455076B1, “Formulations and methods for reducing skin irritation” (priority 1994, dated 2002).

Like-named read-outs stand apart in the source and are kept apart here.

The subject of one assay is skin irritation. The assay is described as follows: Cation salts formulated in commercial topical cosmetic product, inhibition of skin irritation. It counts as in vivo. To be noted: various amounts combined with Elizabeth Arden Visible Difference Refining Toner (alcohol-containing solution). From the text:
Cation salts of the invention were formulated at various concentrations in various commercially available topical cosmetic products.

Assay [1] deals with skin irritation caused by lactic acid. It counts as in vivo, human. To be noted: for average inhibition of cumulative irritation (Percent Inhibition): cation salt 250 mM in 7.5% lactic acid irritant composition, applied to face, vs equimolar sodium chloride control, average over trials; for Percent Inhibition (cumulative irritation): representative panels, cation 250 mM, 7.5% lactic acid; for Percent Inhibition (cumulative irritation), dose-response: lactic acid irritation protocol. The protocol:
The trials were conducted in a double blind, randomized, vehicle-controlled manner. Various formulations of the invention were tested in over 150 people.
Tests were conducted in multiple panels of from 7 to 12 subjects each. Subjects were instructed not to wear any makeup or facial lotions to the clinic the day of testing. T he subjects were instructed to wash their face with Ivory bar soap in the clinic prior to application of test solutions.
Lactic acid skin-irritant compositions were formulated in an appropriate vehicle prior to application to the skin of the subjects. […] […] The test formulation was applied to a defined portion of the subject's skin, typically the face. Controls were performed by applying a corresponding formulation with an equimolar amount of sodium chloride to a contralateral portion of the subject's skin.
All test solutions (including controls) were applied in a double blind, randomized fashion using the prepared solutions as previously placed in coded vial designated for use on either the right or left side of the face (or other test area). Solutions were typically applied using a cotton swab (six strokes) or sponge applicator to the face and cheek area extending from the midline of the nose over to the center of the cheek and from the cheek bone down to the jaw line. Application was made first to the right side and then to the left.
Sensory assessment scores were recorded for each treated side of the subject's skin every minute for 15 minutes or until three consecutive scores of “zero” irritation were obtained. The following scaled scores were used for sensory assessment:
Symptom scores were cumulated, separately for the cation-treated and control-treated areas, for each individual and also for the panel as a whole. Individuals not reporting a cumulative score of at least “7” on at least one treatment area were excluded (in a blinded fashion) from further analysis in order to ascertain anti-irritant efficacy with respect to the more severely-susceptible test subjects. From a practical standpoint, scores of “0” and “1” on the above scale would be considered highly desirable for a commercial product because such a response would likely not result in a consumer ceasing to use a product. Some consumers, in fact, might view the “barely perceptible” sensations represented by a score of 1 to be an indication that a facial treatment skin care product (especially an exfoliant) was working as advertised. By contrast, irritation scores of “2”, “3” and “4” would likely often result in a consumer never purchasing the product again.

[2] abbreviates: topical application, lactic acid induced stinging, burning, tingling, itching, erythema.

Consider `[Cl][Al]([Cl])[Cl]` [Aluminum chloride, aluminum chloride], for which the “inhibition of skin irritation (in words)” value in the assay with skin irritation was “effective to inhibit skin irritation”. The “average inhibition of cumulative irritation (Percent Inhibition)” value (“average inhibition … (Percent Inhibition)” for short) in assay [1] is recorded as 46%. In assay [1] (vehicle 10% EtOH), the “Percent Inhibition (cumulative irritation)” value is 43%. Besides, the “Percent Inhibition (cumulative irritation), dose-response” value in assay [1] (salt concentration 31 mM) stood at 12%; in assay [1] (salt concentration 62 mM), 54%; in assay [1] (salt concentration 125 mM) it was 50%; in assay [1] (salt concentration 250 mM) it was 42%; in assay [1] (salt concentration 500 mM), 44%. In addition, the “anti-irritant activity in clinical trials (in words)” value (“anti-irritant activity” below) in assay [1] (setting [2]) is on record as “particularly active as anti-irritants”.
As to `[F][Sn][F]` [Stannous fluoride, stannous fluoride], the “inhibition of skin irritation (in words)” value with skin irritation is “effective to inhibit skin irritation”. Further, in assay [1], the “average inhibition … (Percent Inhibition)” value was found to be 15%. In addition, the “Percent Inhibition (cumulative irritation)” value in assay [1] (vehicle 10% EtOH) stood at 17%.
As to `O=[N+]([O-])[O-].O=[N+]([O-])[O-].[Sn+2]` [stannous nitrate], the “anti-irritant activity” value in assay [1] (human, in vivo) is reported as “particularly active as anti-irritants”.
Consider `[Sn+2]` [tin(II) (Sn^2+), tin(II)], for which, in assay [1] (setting [2]), the “anti-irritant activity” value is given as “effective”.
stannous chloride: in assay [1] (250 mM, one panel, time course and cumulative irritation), the “anti-irritant efficacy in panel test (FIGS. 1-4, in words)” value is listed as “overall efficacy of the subject formulation is clear”. Also, the “average inhibition … (Percent Inhibition)” value in assay [1] is 50%. For the same compound, in assay [1] (vehicle 33.75% H2O/33.75% Gly/25% EtOH), the “Percent Inhibition (cumulative irritation)” value turned out to be 50%. In assay [1] (setting [2]), the “anti-irritant activity” value is reported as “particularly active as anti-irritants”.
